# From patent US20220218677A1, “ARYLQUINOZILINE DERIVATIVES AS ALPHA2-ADRENOCEPTOR SUBTYPE C (ALPHA-2C) ANTAGONISTS FOR THE TREATMENT OF SLEEP APNEA” (Bayer Aktiengesellschaft, priority 2019, published 2022)
# Tested on: upper airway collapsibility in anaesthetized, spontaneously breathing pigs
# Assay: pig model of obstructive sleep apnea (OSA): upper airway collapsibility under negative pressure
# Format: in vivo, German Landrace pigs
# Settings: for Percent pigs without collaps −50 cm H2O / Percent pigs without collaps −100 cm H2O / Percent pigs without collaps −150 cm H2O: i.v. bolus 0.3 mg/kg then i.v. infusion 0.1 mg/kg/h
# Description: The therapeutic potential of the compounds of formula (I) according to the present invention in sleep apnea has been assessed preclinically in a pig model of obstructive sleep apnea (OSA).
# Using negative pressure, it is possible to induce collapse and thus obstruction of the upper respiratory tract in anaesthetized, spontaneously breathing pigs (Wirth K. J. et al., Sleep 36(5) (2013) pp. 699-708).
# German Landrace pigs are used for the model. The pigs are anaesthetized and tracheotomized. Two tracheal are inserted into the trachea, one into the rostral part and the other into the caudal part of the trachea. Using a connection piece, the rostral cannula is connected to a tube to the negative pressure device and to the distal tracheal cannula. The distal tracheal cannula is additionally connected to a tube with an open end to atmosphere via a connection piece that served for free tracheal breathing, circumventing the upper airway. By appropriate opening and clamping of those tubes breathing can be switched from nasal breathing to breathing through the caudal tracheal cannula, circumventing the upper airway, and the (isolated) upper airway can be connected to the negative pressure device, causing airflow in the inspiratory direction.
# At certain points in time, the collapsibility of the upper respiratory tract is tested by having the pig breathe via the caudal cannula and applying negative pressures of −50, −100 and −150 cm water head (cm H2O) to the upper respiratory tract. This causes the upper respiratory tract to collapse, which manifests itself in an interruption of the airflow and a pressure drop in the tube system. This test is conducted prior to the administration of the test substance and at certain intervals after the administration of the test substance. An appropriately effective test substance can prevent this collapse of the respiratory tract in the inspiratory phase.
# In this OSA pig model, systemic application of the α2-Adrenoceptor subtype C (alpha-2C) antagonists of formula (I) (1S,12bS)-1-(methoxymethyl)-1-methyl-[…][2,3-a]quinolizine with i.v. bolus injection of 0.3 mg/kg followed by an i.v. infusion of 0.1 mg/kg/h for four hours inhibited upper airway collapsibility at all negative pressures of −50, −100 and −150 cm for more than 6 hours (see Table 1, 2 and 3 and FIG. 1).
# [1] = time 0 min (time of administration)
compound,measurement,setting,value
"COC[C@@]1(C)CCCN2CCc3c(oc4ccccc34)[C@@H]21 [(1S,12bS)-1-(methoxymethyl)-1-methyl-1,3,4,6,7,12b-hexahydro-2H-[1]benzofuro[2,3-a]quinolizine]",duration of inhibition of upper airway collapsibility,"all negative pressures of −50, −100 and −150 cm, i.v. bolus 0.3 mg/kg followed by i.v. infusion 0.1 mg/kg/h for four hours",more than 6 hours
same,Percent pigs without collaps −50 cm H2O,[1],0%
same,Percent pigs without collaps −100 cm H2O,[1],0%
same,Percent pigs without collaps −150 cm H2O,[1],0%
same,Percent pigs without collaps −50 cm H2O,time 10 min,100%
same,Percent pigs without collaps −100 cm H2O,time 10 min,100%
same,Percent pigs without collaps −150 cm H2O,time 10 min,100%
same,Percent pigs without collaps −50 cm H2O,time 60 min,100%
same,Percent pigs without collaps −100 cm H2O,time 60 min,100%
same,Percent pigs without collaps −150 cm H2O,time 60 min,100%
same,Percent pigs without collaps −50 cm H2O,time 120 min,100%
same,Percent pigs without collaps −100 cm H2O,time 120 min,100%
same,Percent pigs without collaps −150 cm H2O,time 120 min,100%
same,Percent pigs without collaps −50 cm H2O,time 180 min,100%
same,Percent pigs without collaps −100 cm H2O,time 180 min,100%
same,Percent pigs without collaps −150 cm H2O,time 180 min,100%
same,Percent pigs without collaps −50 cm H2O,time 240 min,100%
same,Percent pigs without collaps −100 cm H2O,time 240 min,100%
same,Percent pigs without collaps −150 cm H2O,time 240 min,100%
same,Percent pigs without collaps −50 cm H2O,time 300 min,100%
same,Percent pigs without collaps −100 cm H2O,time 300 min,100%
same,Percent pigs without collaps −150 cm H2O,time 300 min,100%
